Where a chain is given by its changes, count along the chain named.
Columns and labels:
GUN4 (AtGUN4) [1] = target: T1, GUN4 (AtGUN4) (Arabidopsis thaliana, UniProt Q9LX31, F191A); test: tryptophan fluorescence quenching; type: binding; conditions: read-out: apparent Kd
T1 construct: 6xHis-tagged, pQE80_AtGUN4(WT), expressed in and purified from E. coli
T1 sequence (Q9LX31 70-265 F191A): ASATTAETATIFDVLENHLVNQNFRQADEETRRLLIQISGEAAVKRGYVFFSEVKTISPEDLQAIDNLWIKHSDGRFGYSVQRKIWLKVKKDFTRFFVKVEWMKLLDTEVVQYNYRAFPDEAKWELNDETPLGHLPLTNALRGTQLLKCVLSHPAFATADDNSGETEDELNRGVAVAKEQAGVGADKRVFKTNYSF

GUN4 (AtGUN4) [2] = target: T2, GUN4 (AtGUN4) (Arabidopsis thaliana, UniProt Q9LX31); test: tryptophan fluorescence quenching; type: binding; conditions: read-out: apparent Kd
T2 construct: 6xHis-tagged, pQE80_AtGUN4(WT), expressed in and purified from E. coli
T2 sequence (Q9LX31 70-265): T1 sequence (Q9LX31 70-265 F191A) with A122F

Question: How did the Kd (GUN4 (AtGUN4) [1]) turn out when `C=CC1=C(C)c2cc3[nH]c(cc4nc(cc5[nH]c(cc1n2)c(C)c5CCC(=O)O)C(CCC(=O)O)=C4C)c(C)c3C=C` [PIX] was run?
Answer: 2100 ± 280 nM

Question: What about the Kd (GUN4 (AtGUN4) [2]) of the same compound?
Answer: 1050 ± 120 nM
